One test concerns IFN-λ2 (IFNL2) gene. Description: In vivo induction of IFN-λ2 (IFNL2) gene expression after intranasal instillation in BALB/c mice (RT-qPCR). Particulars: 20 mg/kg intranasal, D0/D1/D2 or D0/D2/D4, sampled D5.
Test [1] deals with interferon lambda 1 (IL-29). The test is described as follows: ELISA measurement of interferon lambda 1 (IL-29) secretion by reconstituted human respiratory epithelia. Type of test: cell-based. Particulars: ELISA after 72 h; 90 μM via basolateral pole, 3 administrations. As for the experimental part: Reconstituted human respiratory epithelia (MucilAir® HAE, Epithelix) were maintained in culture at the air-liquid interface according to the instructions of the supplier Epithelix and were treated or not with diltiazem (90 μM) via their culture medium at their basolateral pole. The diltiazem treatment was repeated for 3 consecutive days (3 administrations in total).
Secretion levels (pg/mL) of interferon lambda 1 (IL-29) at the apical and basolateral poles of human respiratory epithelia treated and untreated with diltiazem were measured by ELISA after 72 h of treatment according to the supplier's instructions (#3570-1H, Mabtech, Stockholm, Sweden).
On the technique in general: ELISA stands for enzyme-linked immunosorbent assay.

The test system of test [2] is IFIT1, IFIT2, IFIT3, IF127, IFN-λ1, IFN-λ2, IF144L and IFITM1 genes. The test is described as follows: RT-qPCR confirmation of induction of 8 genes associated with the type III interferon response. Type of test: cell-based, human. Particulars: 90 μM via basolateral pole, 3 days. For orientation: In qPCR the cycle at which signal appears reflects the starting amount.
In test [3] the test system is genes encoding the type III interferons IFN-λ1, IFN-λ2 and IFN-λ3. Description: RNAseq expression of type III interferon genes and response genes, basolateral treatment of reconstituted human respiratory epithelia (MucilAir HAE). The test is classed as cell-based. To be noted: 90 μM via basolateral pole, 3 days (3 administrations). As for the experimental part:
Reconstituted human respiratory epithelia (MucilAir® HAE, Epithelix) maintained in culture at the air-liquid interface according to the instructions of the supplier Epithelix, were treated or not with diltiazem (90 μM) via their culture medium at their basolateral pole. The diltiazem treatment was repeated for 3 consecutive days (3 administrations in total).
Treated and untreated epithelia were then lysed with 150 μL of RLT buffer (Qiagen). […] Each library was amplified, quantified and indexed with primers provided in the ScriptSeq™ Index PCR Primers Kit (RSBC10948, Epicentre) and sequenced. Sequencing was conducted on an Illumina HiSeq 2500 system with a minimum requirement of 40 million “reads” sequenced per sample.
The demultiplexing of the data and the conversion of the BCL files resulting from the sequencing into FASTQ files were carried out using Illumina's bcl2fastq tool, in its version 1.8.4. […] A pseudo-alignment of the trimmed reads on the human genome (Homo Sapiens: GRCh38.p11) using the Kallisto software was performed, followed by a statistical analysis using the R 3.3.1 software and the EdgeR 3.14.0 package.
The differential in gene expression between epithelial cells treated with diltiazem and control epithelial cells was calculated using a linear model with a p-value correction by the Benjamini-Hochberg method. […]

Test [4] has as its system human parainfluenza virus type 3 (strain C243 ATCC VR-93). Description: hPIV-3 replication in reconstituted human respiratory epithelia (cytopathic effect, TEER, TCID50 titration in LLC-MK2 cells). The test is classed as cell-based. Particulars: MOI 0.1, 90 μM basolateral daily. As for the experimental part: Reconstituted human respiratory epithelia were infected with human parainfluenza virus type 3 (strain C243 ATCC VR-93) at an MOI of 0.1, and treatment of the basolateral medium with 90 μM diltiazem was started 2 hours post-infection and continued daily for 4 consecutive days. Transepithelial electrical resistance (TEER), which reflects the integrity of the epithelium, was measured once daily from 48 h post-infection to 120 hours post-infection.
Apical infectious viral titers (TCID50/mL) were determined in LLC-MK2 cells from washings collected starting 48 h post-infection (hpi), and up to 120 hpi, as shown in FIG. 5A.
On the technique in general: Cytopathic effects are the visible damage that an infection or toxin causes in cultured cells.

The subject of test [5] is respiratory syncytial virus (RSV). Description: RSV challenge infection in BALB/c mouse model, pulmonary viral titers by RT-qPCR (F gene). Type of test: in vivo. Particulars: BALB/c mice, 5×10^5 PFU RSV intranasally; 50 mg/kg per os, 5 treatments; day 5 post-infection. As for the experimental part:
FIG. 4D schematically represents the chronology of infection and treatment of the mice: • BALB/c mice were randomized into 3 groups of 5 individuals and then infected intranasally with 50 μL of a viral suspension containing 5×10^5 PFU of RSV (Day 0). Six hours before infection, the mice were treated with either 40 mg/kg intraperitoneal ribavirin (RSV RIB) or 50 mg/kg diltiazem peros (RSV DIL), or PBS (RSV PBS) as negative control. • The same treatments were repeated every 24 h, with a total of 3 treatments for ribavirin and 5 treatments for diltiazem or PBS. • On day 5 post-infection (D5, corresponding to the peak of viral replication), the mice in each group were euthanized and their lungs were aseptically recovered to measure their pulmonary viral titers by RTqPCR (F gene).
RT-qPCR quantification of the RSV viral genome copy number (quantifying the copies of the F gene) relative to the total amount of RNA extracted from the lungs at 5 days post-infection was performed, and the results are presented in FIG. 4E.
The following statistical tests were used: One-way ANOVA with Bonferroni post-test to compare each virus to the mock condition (PBS treatment). *p<0.05.

Test [6] relates to recombinant hMPV-GFP virus (strain C-85473). Description: hMPV replication in reconstituted human respiratory epithelia (GFP epifluorescence, RT-qPCR of N gene). The test is classed as cell-based, human metapneumovirus. Particulars: MOI 0.1. As to the method:
Viral replication in reconstituted human epithelial models (MucilAir® HAE, Epithelix) of nasal origin was studied on epithelia treated or not treated with diltiazem. To that end, (i) fluorescence light microscopy photos were used to evaluate the efficacy and progression of the infection and (ii) quantification of the viral genome by RTqPCR was performed, on the one hand at the apical pole of the epithelium (surface harvesting) to quantify the excretion of viral progeny, and on the other hand in the total lysates of epithelial cells at end point (day 5 post-infection) to quantify intracellular viral replication within the epithelium.
Human respiratory epithelia (Mucilair, Epithelix) were infected with a recombinant hMPV-GFP virus (strain C-85473) at an MOI of 0.1, then treated (via the basolateral medium of the epithelia) or not with 3 successive doses of diltiazem at 90 μM at D0, D1 and D3 post-infection (3 epithelia per condition).
Epifluorescence microscopy observations were performed on D4 post-infection to observe the impact of diltiazem treatment on viral replication (FIG. 7B).
On day 3 post-infection, a wash at the apical pole of the infected epithelium, treated or not, was performed in order to harvest the viral progeny produced. The genomic viral RNA was extracted and quantified by RT-qPCR (Biosystems™ PowerUp™ SYBR™ Green, Thermo Fisher Scientific) using a plasmid containing the HMPV N gene. The results are expressed in copies of the N gene/μg RNA extracted (FIG. 7C).
On day 5 post-infection, epithelial cells were harvested and lysed to extract total RNA. Total RNAs corresponding to the hMPV N viral gene were quantified by Rt-qPCR (Biosystems™ PowerUp™ SYBR™ Green, Thermo Fisher Scientific), using a range made from a plasmid containing the HMPV N gene. The results are expressed in copies of the N gene/μg RNA extracted (FIG. 7D).

Test [7] concerns respiratory syncytial virus (Long strain, ATCC VR-26). The test is described as follows: RSV replication in infected reconstituted human respiratory epithelia (RT-qPCR, F gene). Type of test: cell-based. Particulars: MOI 1; 90 μM basolateral, 4 administrations from 5 hpi; 6 days post-infection. As to the method:
Reconstituted human respiratory epithelia (MucilAir® HAE, Epithelix) were maintained in culture at the air-liquid interface according to the instructions of the supplier Epithelix and were infected with respiratory syncytial virus (Long strain, ATCC VR-26) at a multiplicity of infection (MOI) 1, then treated or not with diltiazem (90 μM) via their culture medium at their basolateral pole. Diltiazem treatment was performed at 5 hours post-infection and then repeated for 3 consecutive days (4 administrations in total).
At 6 days post-infection, samples at the apical pole of treated and untreated infected epithelia, as well as the epithelia themselves, were lysed with 150 μL of RLT buffer (Qiagen). The process of the experiment is schematically represented in FIG. 4A.
Total RNA was extracted using the RNeasy Kit (Qiagen), according to the supplier's instructions, for quantification of viral genome copy number (F gene) by RT-qPCR at the apical pole, i.e. in the supernatant (FIG. 4B), as well as in the epithelia (FIG. 4C).

In the case of `COc1ccc([C@@H]2Sc3ccccc3N(CCN(C)C)C(=O)[C@@H]2OC(C)=O)cc1` [diltiazem], in the test on IFN-λ2 (IFNL2) gene, the “IFN-λ2 (IFNL2) gene expression in nasal cavities relative to mock-treated mice” value is “activates the IFN III pathway”. Moreover, in test [1], the “IFN-λ1 (IL-29) secretion at the apical pole” value was “very sharply increased” and the “IFN-λ1 (IL-29) secretion at the basolateral pole” value is given as “significant, but less marked, increase”. For the same compound, in test [2], the “expression of the IFIT1, IFIT2, IFIT3, IF127, IFN-λ1, IFN-λ2, IF144L and IFITM1 genes compared with untreated epithelia” value is given as “significant increase”. Also, in test [3], the “expression of type III interferon response genes (IF144L, IFIT1, IFIT2, IFIT3, IFITM1, ISG15, MX1, MX2, OAS1, OAS2, OAS3, OASL, RSAD2, STAT1)” value is recorded as “significantly stimulates the expression”. Also, in test [4] (48 to 120 hpi), the “transepithelial electrical resistance (TEER), integrity of the epithelium” value is given as “integrity appears to be more preserved”. Also, the “cytopathic effects induced by hPIV-3 (microscopy)” value in test [4] (96 and 120 hpi) is “greater and easily visible microscopically in untreated reconstituted human respiratory epithelia, unlike those treated with diltiazem”. In test [4] (untreated 10^7), the “infectious viral titer at the apical surface at 96 h post-infection” value was 10^5 TCID50/mL. The “pulmonary viral titers (RSV F gene copies, RT-qPCR) compared with PBS control group and ribavirin-treated group” value in test [5] was “significantly reduced pulmonary viral titers”. Further, the “fluorescence corresponding to viral expression of GFP (epifluorescence microscopy)” value in test [6] (90 μM basolateral at D0, D1, D3, D4 post-infection) is “very few fluorescent cells”. Moreover, the “reduction of viral genome (N gene) in epithelia (total lysate) versus untreated epithelia” value in test [6] (90 μM basolateral at D0, D1, D3, day 5 post-infection) is reported as 4 log 10. Also, in test [6] (90 μM basolateral, day 3 post-infection), the “reduction of viral genome (N gene) in apical supernatants versus untreated epithelia” value is reported as 2 log 10. For the same compound, in test [7], the “amount of RSV viral genome (F gene) in the culture supernatant (apical pole) compared with untreated epithelia” value is on record as “much lower” and the “amount of RSV viral genome (F gene) in the epithelium compared with untreated epithelia” value is reported as “much lower”.

The values are drawn from patent US12285433B2, “Diltiazem for use in the treatment of microbial infections” (UNIVERSITE CLAUDE BERNARD LYON 1, priority 2018, dated 2025).
